Data on two compounds can be found in PMC5320522, “Membrane targeting of TIRAP is negatively regulated by phosphorylation in its phosphoinositide-binding motif” (Scientific Reports, 2017).

Read-outs that look alike come from different tables or passages of the source.

Format in all cases: binding
The target of test [1] is T1, TIRAP PBM (Homo sapiens, UniProt P58753).
T1 construct: recombinant (isotope-labelled) or synthetic (Thr28-P); GST-fused in overlay assays
Briefly: 1H, […]-HSQC NMR; lipid-protein overlay. To be noted: DPC micelles, pH 6, 25 °C (NMR).

Test [2] addresses T1, TIRAP PBM. Briefly: SPR, L1 chip with liposomes, steady-state fit. As to conditions: DOPC liposomes with 5% PtdIns(4,5)P2; 20 mM HEPES pH 7, 100 mM NaCl; room temperature; synthetic peptide phosphorylated at Thr28; saturation not reached. (In general: SPR reads the build-up and loss of mass on a sensor chip optically.)
The target of test [3] is T1, TIRAP PBM. The test is described as follows: SPR, L1 chip with liposomes, steady-state fit. To be noted: DOPC liposomes with 5% PtdIns(4,5)P2; 20 mM HEPES pH 7, 100 mM NaCl; room temperature; read-out: KD (apparent).

T1 sequence (P58753 15-35): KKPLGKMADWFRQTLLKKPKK

With `CCCCCCCCCCCCCCCC(=O)OC[C@H](COP(=O)(O)O[C@@H]1[C@H](O)[C@H](O)[C@@H](OP(=O)(O)O)[C@H](OP(=O)(O)O)[C@H]1O)OC(=O)CCCCCCCCCCCCCCC` [c16-PtdIns(4,5)P2], on TIRAP PBM [1], the “1H,15N-HSQC NMR; lipid-protein overlay” value was “Similar, but larger, resonance perturbations in DPC-embedded TIRAP PBM spectra were observed”. Regarding PtdIns(4,5)P2, the Kd at TIRAP PBM [2] came out at 787 ± 291 nM; at TIRAP PBM [3], 233 ± 45 nM.
